Common to all, as to type: cell-based, human
The test system of data set [1] is hiPSC-derived neurons. The data set can be described thus: Quantitative RT-PCR gene expression in neurons.
Data set [2] concerns hPSC-CMs. The data set can be described thus: Mitochondrial oxidation of palmitate, Seahorse XF96 extracellular flux palmitate-albumin assay. The following applies: 1 mM AICAR for 2 weeks. As for the experimental part:
The Seahorse XF96 extracellular flux Analyzer™ was used to assess the fatty acid oxidation capacity of the hPSC-CMs. XF96 plates were pre-treated with fibronectin at a concentration of 1 μg/cm^2. At around 20 days after induction of differentiation, the cardiomyocytes were seeded onto the XF96 plates at a density of 30,000 cells per well (2,500/mm^2). The cells were treated with 1 mM AICAR for two weeks before the palmitate-albumin assay. An hour prior to performing this assay, culture medium was exchanged for basal media (unbuffered DMEM, Sigma D5030, supplemented with 2 mM glutamine, 1 mM pyruvate, 25 mM glucose, and 400 μM carnitine). Palmitate-albumin complexes were made following the Seahorse Bioscience protocol. Substrates were injected during the measurements to achieve two spike concentrations of palmitate-albumin at 200 μM each. The oxygen consumption rates (OCR values) were further normalized to the number of cells present in each well, quantified by staining with Hoechst 33342 (Sigma-Aldrich) as measured using fluorescence at 355 nm excitation and 460 nm emission. The highest OCR values induced by palmitate-albumin were used for statistics. Due to variations in the absolute magnitude of OCR measurements in different experiments, the relative AICAR treated/untreated control levels were used to compare and summarize independent biological replicates (N=7).

The subject of data set [3] is hiPS-HLCs. The data set can be described thus: RT-PCR of hepatic and mitochondrial-related genes in hepatocyte-like cells. As for the experimental part: Undifferentiated human IMR90-induced pluripotent stem cells, originally derived from lung fibroblasts^22 (James A. Thomson, University of Wisconsin-Madison), were expanded using mouse embryonic fibroblast-conditioned medium supplemented with 5 ng/ml basic fibroblast growth factor. Cardiomyocytes were obtained using a previously described protocol^2 that involves the serial application of activin A and bone morphogenetic protein-4 (BMP4) under serum-free, monolayer culture conditions. The cultures were also supplemented with the Wnt agonist CHIR99021 in the early stages of differentiation followed by the Wnt antagonist Xav939. In this study, cardiomyocytes derived from human undifferentiated IMR90-induced stem cells were used, and for brevity, these are referred to human induced pluripotent stem cell-derived cardiomyocytes (hiPSC-CM). After 20 days of in vitro differentiation, the cells were dispersed using 0.05% trypsin-EDTA and re-plated. Cultures were fed every other day thereafter with serum-free RPMI-B27 plus insulin. Only cell preparations containing >80% cardiac troponin T-positive cardiomyocytes (by flow cytometry) were used for the current investigation. Twenty days after induction, cells were re-plated at different densities based on experimental purposes (described below). Cells were treated with 1 mM AICAR for two weeks (unless otherwise mentioned specifically), with media being changed every other day. This study was mainly performed with cardiomyocytes-derived from IMR90 iPS cell line. However, cardiomyocytes-derived from another iPS cell line, WTC11 iPS cells^22, and a human embryonic stem cell line (hESC), RUES2 cells, were also used for some of the experiments. Rues and WTC undifferentiated cells were cultured with mTeSR medium. Similar differentiation protocols as to IMR90 were used to obtain cardiomyocytes from Rues and WTC cells. Only cell preparations containing >80% cardiac troponin T-positive cardiomyocytes (by flow cytometry) were used for the current investigation. Undifferentiated iPSCs were maintained on StemAdhere™ (Primorigin Biosciences®) with mTesR medium supplemented with bFGF. The formation of hepatocyte-like cells from iPSCs was achieved as described previously^24,25. Briefly, cells were induced to form endoderm by addition of 100 ng/ml Activin A, 10 ng/ml BMP4, and 20 ng/ml FGF2 for two days followed by 100 ng/ml Activin A for an additional three days. Hepatic progenitor cells were formed by supplementing the medium with 20 ng/ml BMP4 and 10 ng/ml FGF2. Next, 20 ng/ml HGF was added between days 10 and 15 and induced maturation of the hepatocytes by culturing the cells in HCM medium (Lonza®) containing 20 ng/ml Oncostatin M until day 20. In some experiments, the differentiation medium was supplemented with 1.0 mM AICAR between days 15 and 20. hiPSC-derived neurons were generated following previously published protocols^26, 27, 28. Briefly, hiPSCs from a control individual^28 and from a patient with the duplication of the amyloid precursor protein (APP) gene^27 were cultured on mouse embryonic fibroblasts in the presence of 20 ng/ml bFGF (Peprotech®). Neural stem cells were generated by hiPSC co-culture on the mouse stromal cell line PA6 in the presence of 0.5 ug/ml Noggin (Peprotech®) and 10 uM SB431542 (Peprotech®). After 12 days, neural rosettes were dissociated and FACS sorted for the cell surface markers CD184/CD24^+; CD44/CD271^−. Neural stem cells were propagated in 20 ng/ml bFGF and neuronal differentiation was induced by the withdrawal of bFGF and the addition of 20 ng/ml BDNF (Peprotech®), 20 ng/ml GDNF (Peprotech®), […] dbCAMP (Peprotech®).
Total RNA was isolated using the Qiagen RNeasy Kit™, and mRNA was reverse transcribed using the Superscript™ III first strand cDNA synthesis kit (Invitrogen®). All primers were purchased from Real Time Primers, and qRT-PCR was performed using SYBR™ green chemistry and an ABI 7900HT instrument or TAQMAN™ with BIORad CXF384™. […]

For data set [4], the system named is hiPSC-derived neurons. The data set can be described thus: mtDNA:nDNA ratio by quantitative PCR in neurons. Particulars: two weeks of treatment with AICAR every third day.
Data set [5] deals with hPSC-CMs. The data set can be described thus: Mitochondrial oxidation of glucose, Seahorse XF96 maximum respiration capacity. Particulars: AICAR treated vs control. As for the experimental part: The Seahorse XF96 extracellular flux Analyzer™ was used to assess mitochondria function with glucose as substrate. Cell preparation and treatment for this assay were the same as the palmitate assay. On the assay day, culture medium was changed to base media (unbuffered DMEM, Sigma D5030, supplemented with 2 mM glutamine, 25 mM glucose, 1 mM pyruvate) 1 hour before the assay and for the duration of the measurement. Selective inhibitors were injected during the measurements to achieve final concentrations of oligomycin at 2.5 μM, FCCP at 1 μM, rotenone at 2.5 μM, and antimycin A at 2.5 μM. The OCR values were further normalized to the number of cells present in each well, quantified by Hoechst staining. Maximal OCR was the OCR difference between uncoupler FCCP and ATPase inhibitor oligomycin. Due to variations in the absolute magnitude of OCR measurements in different experiments, the relative AICAR treated/untreated control levels were used to compare and summarize independent biological replicates (N=6).

Setting [6] is: normalized to HPRT then to control cells.
[7] abbreviates: HLCs treated at day 20 with 1 mM AICAR for additional seven days.

From patent publication US20220152117A1, “METHODS OF PROMOTING CELLULAR MATURATION WITH AMPK ACTIVATORS” (UNIVERSITY OF WASHINGTON, priority 2019, published 2022) come the findings set out here.

Values joined by “and” are separate entries in the source; they are usually repeats but may differ in a detail not shown here. Equal entries are not always repeated. “Also recorded” adds a separate entry of the source.

As to `NC(=O)c1ncn([C@@H]2O[C@H](CO)[C@@H](O)[C@H]2O)c1N` [AICAR, 5-amino-4-imidazolecarboxamide riboside-1-β-D-ribofuranoside], the “NeuN mRNA in neurons” value in data set [1] (compared to control neurons) was “significant increase”. In addition, in data set [1] (setting [6]), the “PPARα expression in neurons” value is recorded as “increased” and the “TFAM expression in neurons” value is reported as “increased”. In addition, the “PDK4 expression in neurons” value in data set [1] (two weeks of treatment with AICAR every third day) is listed as “increase”. Further, the “increase in oxygen consumption rate (OCR) upon palmitate-albumin introduction” value in data set [2] was 2.32±0.12 fold and ~2.3 fold. Moreover, in data set [3] (1 mM AICAR day 15 to 17), the “HNF4α expression, treatment day 15 to 17” value is given as “significantly down-regulated”; the “other mature hepatic-related genes (SLC10A1, APOH, ASGR, APOB, and PXR)” value is “no significant difference”. The “AFP expression, treatment day 15 to 17” value in data set [3] (1 mM AICAR day 15 to 17, endpoint day 20) is on record as “diminished; also recorded: significantly reduced”. Further, the “ALB expression, treatment day 15 to 17” value in data set [3] (1 mM AICAR day 15 to 17, endpoint day 20, b310 calls the change non-significant) was “enhanced”. The “ALB expression, longer treatment” value in data set [3] (1 mM AICAR, longer treatment between days 15 and 20, endpoint day 20) was “adversely affected”. Besides, in data set [3] (setting [7]), the “PDK4 expression in HLCs” value was “significantly increased”; the “PGC1α, ERRa, PPARα, TFAM and HNF4α expression in HLCs” value is on record as “no significant effect”. Also, in data set [4], the “mtDNA/nDNA ratio in neurons” value is listed as “increase”. In data set [5], the “maximum mitochondrial respiration capacity” value was “significantly increased”.
